In one assay the target is T1, erbB2 tyrosine kinase (Homo sapiens, UniProt P04626).
T1 construct: Recombinant intracellular fragments of EGFR, erbB2 and erbB4; made in house; host or cells: baculovirus/Sf21 insect cells (cleared lysate used)
The experiment in a line: Protein tyrosine kinase phosphorylation assay, Test (a), erbB2. The assay is classed as biochemical. Particulars: recombinant intracellular fragment, ATP at Km concentration; read-out: IC50 (μM) Test (a): Inhibition of erbB2 tyrosine kinase protein phosphorylation. The procedure: (§1) This test measures the ability of a test compound to inhibit the phosphorylation of a tyrosine containing polypeptide substrate by an erb receptor tyrosine kinase enzyme.
(§2) Recombinant intracellular fragments of EGFR, erbB2 and erbB4 (accession numbers X00588, X03363 and L07868 respectively) were cloned and expressed in the baculovirus/Sf21 system. Lysates were prepared from these cells by treatment with ice-cold lysis buffer (20 mM N-2-hydroxyethylpiperizine-N′-2-ethanesulfonic acid (HEPES) pH7.5, 150 mM NaCl, 10% glycerol, 1% Triton X-100, 1.5 mM MgCl2, 1 mM ethylene glycol-bis(β-aminoethyl ether) N′,N′,N′,N′-tetraacetic acid (EGTA), plus protease inhibitors and then cleared by centrifugation.
(§3) Constitutive kinase activity of these recombinant proteins was determined by their ability to phosphorylate a synthetic peptide (made up of a random co-polymer of Glutamic Acid, Alanine and Tyrosine in the ratio of 6:3:1). Specifically, Maxisorb™ 96-well immunoplates were coated with synthetic peptide (0.2 μg of peptide in a 100 μl phosphate buffered saline (PBS) solution and incubated at 4° C. overnight). Plates were washed in 50 mM HEPES pH 7.4 at room temperature to remove any excess unbound synthetic peptide. EGFR or erbB2 activities were assessed by incubation in peptide coated plates for 20 minutes at room temperature in 50 mM HEPES pH 7.4 at room temperature, adenosine trisphosphate (ATP) at Km concentration for the respective enzyme, 10 mM MnCl2, 0.05 mM Na3VO4, 0.1 mM DL-dithiothreitol (DTT), 0.05% Triton X-100 with test compound in DMSO (final concentration of 2.5%). Reactions were terminated by the removal of the liquid components of the assay followed by washing of the plates with PBS-T (phosphate buffered saline with 0.05% Tween 20).
(§4) The immobilised phospho-peptide product of the reaction was detected by immunological methods. Firstly, plates were incubated for 90 minutes at room temperature with anti-phosphotyrosine primary antibodies that were raised in the mouse (4G10 from Upstate Biotechnology). Following extensive washing, plates were treated with Horseradish Peroxidase (HRP) conjugated sheep anti-mouse secondary antibody (NXA931 from Amersham) for 60 minutes at room temperature. After further washing, HRP activity in each well of the plate was measured colorimetrically using 22′-Azino-di-[3-ethylbenzthiazoline sulfonate (6)] diammonium salt crystals (ABTS™ from Roche) as a substrate.
(§5) Quantification of colour development and thus enzyme activity was achieved by the measurement of absorbance at 405 nm on a Molecular Devices ThermoMax microplate reader. Kinase inhibition for a given compound was expressed as an IC50 value. […] The range of phosphorylation was calculated from the positive (vehicle plus ATP) and negative (vehicle minus ATP) control values.

Another assay has as its target T2, EGFR tyrosine kinase (Homo sapiens, UniProt P00533).
T2 construct: Recombinant intracellular fragments of EGFR, erbB2 and erbB4; made in house; host or cells: baculovirus/Sf21 insect cells (cleared lysate used)
The assay is described as follows: Protein tyrosine kinase phosphorylation assay, Test (a), EGFR. Particulars: recombinant intracellular fragment, ATP at Km concentration; read-out: IC50 (μM) Test (a): Inhibition of EGFR tyrosine kinase protein phosphorylation. The assay is classed as biochemical. Here is the method: as §1, §2, §3, §4, §5

Assay [1] addresses T3, erbB2 in a MCF7 derived cell line (Clone 24 cells) (Homo sapiens, UniProt P04626).
T3 construct: a cell line that overexpresses full length wild type erbB2 protein; expressed in transfected cells; host or cells: MCF7 (breast carcinoma) cells stably transfected, 'Clone 24'
The experiment in a line: Clone 24 phospho-erbB2 cell assay, Test (d). It is filed as cell-based. Particulars: phosphorylation of erbB2 in a MCF7 derived cell line; read-out: IC50 (μM) Test (e): Inhibition of erbB2 tyrosine kinase protein phosphorylation. Here is the method: This immunofluorescence end point assay measures the ability of a test compound to inhibit the phosphorylation of erbB2 in a MCF7 (breast carcinoma) derived cell line which was generated by transfecting MCF7 cells with the full length erbB2 gene using standard methods to give a cell line that overexpresses full length wild type erbB2 protein (hereinafter ‘Clone 24’ cells).
Clone 24 cells were cultured in Growth Medium (phenol red free Dulbecco's modified Eagle's medium (DMEM) containing 10% foetal bovine serum, 2 mM glutamine and 1.2 mg/ml G418) in a 7.5% CO2 air incubator at 37° C. Cells were harvested from T75 stock flasks by washing once in PBS (phosphate buffered saline, pH7.4, Gibco No. 10010-015) and harvested using 2 mls of Trypsin (1.25 mg/ml)/ethylaminediaminetetraacetic acid (EDTA) (0.8 mg/ml) solution. The cells were resuspended in Growth Medium. Cell density was measured using a haemocytometer and viability was calculated using Trypan Blue solution before being further diluted in Growth Medium and seeded at a density of 1×10^4 cells per well (in 100 ul) into clear bottomed 96 well plates (Packard, No. 6005182).
3 days later, Growth Medium was removed from the wells and replaced with 100 ul Assay Medium (phenol red free DMEM, 2 mM glutamine, 1.2 mg/ml G418) either with or without erbB inhibitor compound. Plates were returned to the incubator for 4 hours and then 20 μl of 20% formaldehyde solution in PBS was added to each well and the plate was left at room temperature for 30 minutes. This fixative solution was removed with a multichannel pipette, 100 μl of PBS was added to each well and then removed with a multichannel pipette and then 50 μl PBS was added to each well. Plates were then sealed and stored for up to 2 weeks at 4° C.
Immunostaining was performed at room temperature. Cells were washed once with 200 μl PBS/Tween 20 (made by adding 1 sachet of PBS/Tween dry powder (Sigma, No. P3563) to 1 L of double distilled H2O) using a plate washer, then 100 μl of 0.5% Triton X-100/PBS was added to each well to permeabalise the cells. After 10 minutes, the plates were washed with 200 μl PBS/Tween 20 and then 100 μl Blocking Solution (5% Marvel dried simmed milk (Nestle) in PBS) was added per well and plates were incubated for 15 minutes. […] Plates were analysed within six hours of completing the immunostaining.
The Fluorescence signal is each well was measured using an Acumen Explorer Instrument (Acumen Bioscience Ltd.), a plate reader that can be used to rapidly quantitate features of images generated by laser-scanning. […] Fluorescence dose response data obtained with each compound was exported into a suitable software package (such as Origin) to perform curve fitting analysis. […]

Each structure is given as a SMILES string.

T1 sequence (P04626 676-1255 limits assumed): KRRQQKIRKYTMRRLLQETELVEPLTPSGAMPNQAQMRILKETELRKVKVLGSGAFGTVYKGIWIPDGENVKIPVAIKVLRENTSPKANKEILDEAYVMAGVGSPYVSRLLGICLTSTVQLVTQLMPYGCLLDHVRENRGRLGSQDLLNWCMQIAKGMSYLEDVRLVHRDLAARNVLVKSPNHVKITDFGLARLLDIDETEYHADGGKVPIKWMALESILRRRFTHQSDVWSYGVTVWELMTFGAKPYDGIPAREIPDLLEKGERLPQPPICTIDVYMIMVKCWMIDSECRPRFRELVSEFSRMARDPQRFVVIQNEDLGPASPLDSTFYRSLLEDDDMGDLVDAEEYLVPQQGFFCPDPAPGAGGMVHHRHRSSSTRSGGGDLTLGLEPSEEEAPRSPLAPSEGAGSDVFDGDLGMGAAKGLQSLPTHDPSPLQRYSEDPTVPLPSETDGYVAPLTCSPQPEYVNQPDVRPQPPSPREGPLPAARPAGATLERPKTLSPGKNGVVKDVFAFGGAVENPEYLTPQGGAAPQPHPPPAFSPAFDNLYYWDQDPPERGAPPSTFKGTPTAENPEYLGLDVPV
T2 sequence (P00533 669-1210 limits assumed): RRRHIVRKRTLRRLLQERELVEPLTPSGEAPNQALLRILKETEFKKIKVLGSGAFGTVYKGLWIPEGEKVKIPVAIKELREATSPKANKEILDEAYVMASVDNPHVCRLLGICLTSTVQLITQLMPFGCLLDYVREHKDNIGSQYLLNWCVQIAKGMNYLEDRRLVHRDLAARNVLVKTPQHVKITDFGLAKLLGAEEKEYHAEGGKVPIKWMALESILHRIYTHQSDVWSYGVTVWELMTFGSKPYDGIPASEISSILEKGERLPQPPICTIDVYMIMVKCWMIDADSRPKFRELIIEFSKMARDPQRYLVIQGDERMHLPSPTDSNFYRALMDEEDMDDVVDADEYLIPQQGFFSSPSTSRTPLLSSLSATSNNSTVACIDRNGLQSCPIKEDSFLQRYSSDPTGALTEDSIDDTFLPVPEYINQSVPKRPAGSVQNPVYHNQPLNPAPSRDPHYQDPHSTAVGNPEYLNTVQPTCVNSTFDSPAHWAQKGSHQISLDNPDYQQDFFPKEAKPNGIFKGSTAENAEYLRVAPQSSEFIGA
T3 sequence (P04626 23-1255): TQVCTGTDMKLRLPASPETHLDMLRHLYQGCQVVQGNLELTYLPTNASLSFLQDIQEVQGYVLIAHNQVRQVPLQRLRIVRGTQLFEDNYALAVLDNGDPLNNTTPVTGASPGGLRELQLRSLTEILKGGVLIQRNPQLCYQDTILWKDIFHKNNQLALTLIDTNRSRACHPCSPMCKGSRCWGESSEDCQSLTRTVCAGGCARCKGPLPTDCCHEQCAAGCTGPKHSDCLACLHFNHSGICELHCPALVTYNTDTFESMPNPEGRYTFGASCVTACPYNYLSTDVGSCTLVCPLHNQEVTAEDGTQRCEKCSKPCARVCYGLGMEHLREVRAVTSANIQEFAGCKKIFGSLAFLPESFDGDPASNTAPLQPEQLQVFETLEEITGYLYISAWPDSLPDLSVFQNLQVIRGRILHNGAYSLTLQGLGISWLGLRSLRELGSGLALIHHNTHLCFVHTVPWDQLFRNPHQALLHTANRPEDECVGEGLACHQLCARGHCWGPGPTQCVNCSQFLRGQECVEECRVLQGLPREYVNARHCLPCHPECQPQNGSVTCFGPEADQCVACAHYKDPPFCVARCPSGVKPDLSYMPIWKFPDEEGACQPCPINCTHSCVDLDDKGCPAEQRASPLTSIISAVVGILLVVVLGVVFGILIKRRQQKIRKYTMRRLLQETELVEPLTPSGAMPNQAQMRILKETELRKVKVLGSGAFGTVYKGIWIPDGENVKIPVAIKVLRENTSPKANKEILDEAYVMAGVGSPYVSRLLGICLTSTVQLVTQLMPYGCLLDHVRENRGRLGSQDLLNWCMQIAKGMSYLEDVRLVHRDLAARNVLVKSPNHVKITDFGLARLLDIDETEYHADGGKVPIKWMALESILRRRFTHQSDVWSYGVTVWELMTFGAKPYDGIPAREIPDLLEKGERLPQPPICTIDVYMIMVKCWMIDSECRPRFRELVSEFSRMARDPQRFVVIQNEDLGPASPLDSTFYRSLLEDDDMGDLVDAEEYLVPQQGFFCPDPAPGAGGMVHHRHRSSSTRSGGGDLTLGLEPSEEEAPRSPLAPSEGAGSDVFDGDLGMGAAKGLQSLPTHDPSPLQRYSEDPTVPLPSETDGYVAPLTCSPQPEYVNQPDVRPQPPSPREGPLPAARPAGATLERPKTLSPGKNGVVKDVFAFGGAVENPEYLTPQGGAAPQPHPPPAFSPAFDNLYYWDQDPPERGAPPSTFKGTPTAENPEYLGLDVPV

As usually defined, the IC50 is the concentration that gives 50% inhibition. Take `C[C@@H](Oc1cccc2ncnc(Nc3ccc(OCc4ccccn4)c(Cl)c3)c12)C(=O)N(C)C` [Example 21, (2R)-2-[(4-{[3-Chloro-4-(pyridin-2-ylmethoxy)phenyl]amino}quinazolin-5-yl)oxy]-N,N-dimethylpropanamide]: the values for the IC50 (at erbB2 tyrosine kinase; at EGFR tyrosine kinase; in assay [1]) were 0.002 µM, 0.072 µM and 0.001 µM, respectively.

As for `C[C@H](Oc1cccc2ncnc(Nc3ccc(OCc4ccccn4)c(Cl)c3)c12)C(=O)N1CCC[C@H]1CO` [Example 34, ((2S)-1-{(2S)-2-[(4-{[3-Chloro-4-(pyridin-2-ylmethoxy)phenyl]amino}quinazolin-5-yl)oxy]propanoyl}pyrrolidin-2-yl)methanol], the figures for the IC50 (at erbB2 tyrosine kinase; at EGFR tyrosine kinase; in assay [1]) were 0.002 µM, 0.135 µM and 0.001 µM, respectively.

With `CC(C)(Oc1cccc2ncnc(Nc3ccc(OCc4ccccn4)c(Cl)c3)c12)C(N)=O` [Example 42, 2-[(4-{[3-Chloro-4-(pyridin-2-ylmethoxy)phenyl]amino}quinazolin-5-yl)oxy]-2-methylpropanamide], the figures for the IC50 (on erbB2 tyrosine kinase; on EGFR tyrosine kinase; in assay [1]) were 0.012 µM, 24.8 µM and 0.002 µM, respectively.

Turning to `Cc1ccc(Oc2ccc(Nc3ncnc4cccc(OCC(=O)NCCO)c34)cc2C)cn1` [Example 52, N-(2-Hydroxyethyl)-2-{[4-({3-methyl-4-[(6-methylpyridin-3-yl)oxy]phenyl}amino)quinazolin-5-yl]oxy}acetamide], the IC50 is 0.002 µM on erbB2 tyrosine kinase, 1.47 µM at EGFR tyrosine kinase and 0.019 µM in assay [1].

The record behind these values is patent US20070232607A1, “Quinazoline Derivatives as Erbb Receptor Tyrosine kinases” (priority 2004, published 2007).
